In US9408851B2, “Compounds” (Glaxo Group Limited, priority 2004, dated 2016):

Assays:
[1] = In vitro intrinsic clearance in microsomes, human; type: in vitro ADME; conditions: Assay 3, human female microsomes, 0.5 uM compound, 0.5 mg/mL protein, 37° C.; for microsomal CLint at 0.5 uM: pH 7.4
Description: (§1) Determination of In vitro Intrinsic Clearance in Microsomes
(§2) NADP regeneration buffer for use in incubations was prepared fresh on the assay day. It contained 7.8 mg glucose-6-phosphate (mono-sodium salt), 1.7 mg NADP and 6 Units glucose-6-phosphate dehydrogenase per 1 mL of 2% sodium bicarbonate. Microsomes (human, female; cynomolgus monkey, female; dog, female; rat, female) were prepared in pH7.4 phosphate buffer and contained 0.625 mg protein/mL. Unless stated, all subsequent steps were performed by a Tecan Genesis 150/8 RSP. A 1.25 mM stock solution of the compounds was prepared in Acetonitrile/water (1:1). 25 ul of the 1.25 mM stock solution was added to 600 ul of Acetonitrile/water (1:1) to give a 50 uM solution. For each species, the 50 uM solutions (10 uL) were added to microsomes (790 uL) in a microplate (Porvair, 96 deepwell, square). 400 uL of the microsomal solution containing the compound was transferred to a microplate (Porvair, 96 deepwell, round) and was pre-warmed at 37° C. for five minutes prior to initiation of incubations. All incubations were initiated by addition of 100 uL of
(§3) NADP regeneration system to the pre-warmed microsomes. The mixtures were incubated at 37° C. in a Techne heating block. Following 0, 3, 6, 12 and 30 minutes incubation, 20 uL aliquots were taken and added to 100 uL of acetonitrile containing internal standard.
(§4) For determination of the rate of metabolism, incubations were performed at a compound concentration of 0.5 uM and a protein concentration of 0.5 mg/mL. The concentration of solvent in the incubation was 0.5%.
(§5) Test compound concentrations were determined by LC/MS/MS; results were reported as analyte:internal standard peak area ratios.
(§6) The rate of disappearance was calculated by fitting a single exponential decay to the concentration-time curve using Excel and intrinsic clearance was calculated using the following formula: […]

[2] = molecular target: T1, recombinant human Oxytocin-1 (hOT) receptor (Homo sapiens, UniProt P30559); test: Antagonist affinity at human Oxytocin-1 receptors using FLIPR ([Ca2+]i); type: cell-based; conditions: Assay 1, CHO-hOT cells, oxytocin at EC80, read-out: fpKi
T1 construct: expressed in transfected cells
T1 sequence (P30559 1-389): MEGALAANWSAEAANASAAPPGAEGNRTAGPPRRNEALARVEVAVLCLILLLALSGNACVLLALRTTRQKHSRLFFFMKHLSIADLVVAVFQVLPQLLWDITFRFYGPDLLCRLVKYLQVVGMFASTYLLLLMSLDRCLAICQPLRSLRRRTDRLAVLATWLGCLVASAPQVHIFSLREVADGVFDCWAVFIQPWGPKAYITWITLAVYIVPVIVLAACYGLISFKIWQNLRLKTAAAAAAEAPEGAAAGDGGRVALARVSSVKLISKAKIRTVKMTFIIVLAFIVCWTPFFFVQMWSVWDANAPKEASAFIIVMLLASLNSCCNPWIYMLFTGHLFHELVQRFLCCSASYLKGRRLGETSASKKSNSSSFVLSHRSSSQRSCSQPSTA
Description: Determination of Antagonist Affinity at Human Oxytocin-1 Receptors using FLIPR
Adherent Chinese Hamster Ovary (CHO) cells, stably expressing the recombinant human Oxytocin-1 (hOT) receptor, were maintained in culture in DMEM:F12 medium (Sigma, cat no D6421), supplemented with 10% heat inactivated foetal calf serum
(Gibco/Invitrogen, cat. no. 01000-147), 2 mM L-glutamine (Gibco/Invitrogen, cat. no. 25030-024) and 0.2 mg/ml G418 (Gibco/Invitrogen, cat no. 10131-027). Cells were grown as monolayers under 95%:5% air:CO2 at 37° C. and passaged every 3-4 days using TrypLE™ Express (Gibco/Invitrogen, cat no. 12604-013).
Measurement of [Ca^2+]i using the FLIPR™
CHO-hOT cells were seeded into black walled clear-base 384-well plates (Nunc) at a density of 10,000 cells per well in culture medium as described above and maintained overnight (95%:5% air:CO2 at 37° C.). […] Cells were then incubated for an additional 30 min at 37° C. with either buffer alone or buffer containing OT antagonist, before being placed into a FLIPR™ (Molecular Devices, UK) to monitor cell fluorescence (λex=488 nm, λEM=540 nm) before and after the addition of a submaximal concentration of oxytocin (EC80).
Functional responses using FLIPR were analysed using Activity Base Version 5.0.10.

[3] = In vitro intrinsic clearance in microsomes, rat; type: in vitro ADME; conditions: Assay 3, rat female microsomes, 0.5 uM compound, 0.5 mg/mL protein, 37° C.; for microsomal CLint at 0.5 uM: pH 7.4
Description: as §1, §2, §3, §4, §5, §6

[4] = In vitro intrinsic clearance in microsomes, dog; type: in vitro ADME; conditions: Assay 3, dog female microsomes, 0.5 uM compound, 0.5 mg/mL protein, 37° C.; for microsomal CLint at 0.5 uM: pH 7.4
Description: as §1, §2, §3, §4, §5, §6

[5] = molecular target: T2, human recombinant oxytocin receptors (Homo sapiens, UniProt P30559); test: Oxytocin binding assay ([3H]-oxytocin, CHO cell membranes); conditions: Assay 2, Ki from IC50 by Cheng and Prusoff
T2 construct: expressed in transfected cells; host or cells: membranes of CHO cells
T2 sequence (P30559 1-389): T1 sequence (P30559 1-389)
Description: Membranes were prepared from CHO cells expressing human recombinant oxytocin receptors. The membrane preparation was frozen in aliquots at −70° C. until used.
Membranes (˜50 ug) were incubated in 200 ul of assay buffer (50 mM Tris, 10 mM MgCl2, and 0.1% bovine serum albumin, pH 7.5) containing ˜2.4 nM of [3H]-oxytocin in the absence (total binding) or presence (non-specific binding) of 1 uM unlabeled oxytocin and increasing concentrations of the compounds in Examples 1 to 6 or comparator compounds. Incubations were performed at room temperature for 60 minutes. The reactions were stopped with 3 ml of ice cold buffer and filtered through Whatman GF/C filter paper presoaked in 0.3% polyethylenimine. The filters were washed 4 times with 3 ml buffer using a Brandel cell harvester. The filters were counted in 3 ml Ready Safe scintillation fluid (Beckman).
Specific binding represented approximately 90% of total binding.
IC50 values were determined from competition binding experiments using non-linear regression analysis (GraphPad) and converted to Ki using the method of Cheng and Prusoff, 1974. Data are reported as mean values.

[6] = In vitro intrinsic clearance in microsomes, cynomolgus monkey; type: in vitro ADME; conditions: Assay 3, cynomolgus monkey female microsomes, 0.5 uM compound, 0.5 mg/mL protein, 37° C.; for microsomal CLint at 0.5 uM: pH 7.4
Description: as §1, §2, §3, §4, §5, §6

| microsomal CLint at 0.5 uM [1] [mL/min/g] | Ki [2] [nM] | microsomal CLint at 0.5 uM [3] [mL/min/g] | microsomal CLint at 0.5 uM [4] [mL/min/g] | Ki [5] [nM] | microsomal CLint at 0.5 uM [6] [mL/min/g] | Microsomal Cl, Human [1] | Microsomal Cl, Cynomolgus monkey [6] | Microsomal Cl, Rat [3] | Microsomal Cl, Dog [4] | SMILES |
| --- | --- | --- | --- | --- | --- | --- | --- | --- | --- | --- |
| 9 to 15 | 0.631 to 7.94 | 1 to 8 | 1 to 8 | 0.0316 to 1.58 | – | – | – | – | – | Cc1ccc([C@H](C(=O)N(C)C)N2C(=O)[C@@H](C3Cc4ccccc4C3)NC(=O)[C@H]2CC(C)C)cn1 [Comparator X, (2R)-2-[(3R,6R)-3-(2,3-dihydro-1H-inden-2-yl)-6-isobutyl-2,5-dioxopiperazin-1-yl]-N,N-dimethyl-2-(6-methylpyridin-3-yl)ethanamide, reference compound] |
| 1 to 8 | – | 1 to 8 | 1 to 8 | – | 1 to 8 | – | – | – | – | CC[C@H](C)[C@@H]1C(=O)N[C@H](C2Cc3ccccc3C2)C(=O)N1[C@@H](C(=O)NC)c1ccc(C)nc1C [Example 1, (2R)-2-{(3R,6R)-3-(2,3-Dihydro-1H-inden-2-yl)-6-[(1S)-1-methylpropyl]-2,5-dioxo-1-piperazinyl}-2-(2,6-dimethyl-3-pyridinyl)-N-methylethanamide] |
| – | – | 1 to 8 | 1 to 8 | – | – | +, + | ++, +++ | – | – | CC[C@H](C)[C@@H]1C(=O)N[C@H](C2Cc3ccccc3C2)C(=O)N1[C@@H](C(=O)N(C)C)c1ccc(C)nc1C [Example 2, (2R)-2-{(3R,6R)-3-(2,3-Dihydro-1H-inden-2-yl)-6-[(1S)-1-methylpropyl]-2,5-dioxo-1-piperazinyl}-2-(2,6-dimethyl-3-pyridinyl)-N,N-dimethylethanamide] |
| 1 to 8 | – | 1 to 8 | 1 to 8 | – | 1 to 8 | – | – | – | – | CC[C@H](C)[C@@H]1C(=O)N[C@H](C2Cc3ccccc3C2)C(=O)N1[C@@H](C(=O)N1CCOCC1)c1ccc(C)nc1C [Example 3, (3R,6R)-3-(2,3-dihydro-1H-inden-2-yl)-1-[(1R)-1-(2,6-dimethyl-3-pyridinyl)-2-(4-morpholinyl)-2-oxoethyl]-6-[(1S)-1-methylpropyl]-2,5-piperazinedione] |
| – | – | – | – | – | – | ++, + | +++++, +++++ | +, + | +, + | CC[C@H](C)[C@@H]1C(=O)N[C@H](C2Cc3ccccc3C2)C(=O)N1[C@@H](C(=O)N(C)C)c1cnc(C)cc1C [Example 4, (2R)-2-{(3R,6R)-3-(2,3-Dihydro-1H-inden-2-yl)-6-[(1S)-1-methylpropyl]-2,5-dioxo-1-piperazinyl}-2-(4,6-dimethyl-3-pyridinyl)-N,N-dimethylethanamide] |
| 1 to 8 | – | 1 to 8 | 1 to 8 | – | 16 to 20 | – | – | – | – | CC[C@H](C)[C@@H]1C(=O)N[C@H](C2Cc3ccccc3C2)C(=O)N1[C@@H](C(=O)NC)c1cnc(C)cc1C [Example 5, (2R)-2-{(3R,6R)-3-(2,3-Dihydro-1H-inden-2-yl)-6-[(1S)-1-methylpropyl]-2,5-dioxo-1-piperazinyl}-2-(4,6-dimethyl-3-pyridinyl)-N-methylethanamide] |
| 1 to 8 | – | 1 to 8 | 1 to 8 | – | 16 to 20 | – | – | – | – | CC[C@H](C)[C@@H]1C(=O)N[C@H](C2Cc3ccccc3C2)C(=O)N1[C@@H](C(=O)N1CCOCC1)c1cnc(C)cc1C [Example 6, (3R,6R)-3-(2,3-dihydro-1H-inden-2-yl)-1-[(1R)-1-(4,6-dimethyl-3-pyridinyl)-2-(4-morpholinyl)-2-oxoethyl]-6-[(1S)-1-methylpropyl]-2,5-piperazinedione] |
